Structures can show the parent of a compound that is named as a salt.
Each molecule was assayed against T1, FLAG-tagged full length PHD2 (Homo sapiens, UniProt Q9GZT9) (assay: PHD2 inhibition assay (time resolved fluorescence, HIF-1α peptide hydroxylation, VHL detection)). Settings: 0.2 μM 2-oxoglutarate, 0.5 μM HIF-1α peptide, 2 hr at room temperature; read-out: PHD2 Activity (PHD2 binding activity expressed as IC50).
T1 construct: FLAG-tagged full length PHD2; FLAG; made in house; host or cells: baculovirus-infected Sf9 cells
T1 sequence (Q9GZT9 whole entry): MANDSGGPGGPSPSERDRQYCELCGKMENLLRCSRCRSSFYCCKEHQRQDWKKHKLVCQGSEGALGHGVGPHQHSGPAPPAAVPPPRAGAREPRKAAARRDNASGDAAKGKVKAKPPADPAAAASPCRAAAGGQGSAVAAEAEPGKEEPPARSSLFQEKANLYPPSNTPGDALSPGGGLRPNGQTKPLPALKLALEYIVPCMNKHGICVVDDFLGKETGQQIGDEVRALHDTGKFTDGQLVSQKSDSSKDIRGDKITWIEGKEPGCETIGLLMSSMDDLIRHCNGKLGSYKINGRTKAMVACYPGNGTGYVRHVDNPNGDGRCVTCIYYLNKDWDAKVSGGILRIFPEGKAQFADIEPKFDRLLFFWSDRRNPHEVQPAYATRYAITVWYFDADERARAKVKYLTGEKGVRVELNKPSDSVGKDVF
Type: biochemical
Protocol: To each well of a 96-well plate was added 1 μL of test compound in DMSO and 20 μl of assay buffer (50 mM Tris pH 7.4/0.01% Tween-20/0.1 mg/ml bovine serum albumin/10 μM ferrous sulfate/1 mM sodium ascorbate/20 μg/ml catalase) containing 0.15 μg/ml FLAG-tagged full length PHD2 expressed in and purified from baculovirus-infected Sf9 cells. After a 30 min preincubation at room temperature, the enzymatic reactions were initiated by the addition of 4 μL of substrates (final concentrations of 0.2 μM 2-oxoglutarate and 0.5 μM HIF-1α peptide biotinyl-[…]).

IC50 [µM] | Structure (SMILES)
≤ 0.01 | N#Cc1cccc(-c2ccc(Cn3c4c(c(O)c(C(=O)NCC(=O)O)c3=O)CSC4)cc2)c1 [Example 46, N-({1-[(3′-cyanobiphenyl-4-yl)methyl]-4-hydroxy-2-oxo-1,2,5,7-tetrahydrothieno[3,4-b]pyridin-3-yl}carbonyl)glycine]
≤ 0.01 | O=C(O)CNC(=O)c1c(O)c2c(n(Cc3coc(-c4ccccc4)n3)c1=O)CSC2 [Example 21, N-({4-hydroxy-2-oxo-1-[(2-phenyl-1,3-oxazol-4-yl)methyl]-1,2,5,7-tetrahydrothieno[3,4-b]pyridin-3-yl}carbonyl)glycine]
≤ 0.01 | O=C(O)CNC(=O)c1c(O)c2c(n(Cc3ccc(C(F)(F)F)cc3)c1=O)CS(=O)(=O)C2 [Example 63, N-({4-hydroxy-6,6-dioxido-2-oxo-1-[4-(trifluoromethyl)benzyl]-1,2,5,7-tetrahydrothieno[3,4-6]pyridin-3-yl}carbonyl)glycine]
≤ 0.01 | O=C(O)CNC(=O)c1c(O)c2c(n(Cc3ccc(Cl)c(Cl)c3)c1=O)CSC2 [Example 19, N-{[1-(3,4-dichlorobenzyl)-4-hydroxy-2-oxo-1,2,5,7-tetrahydrothieno[3,4-b]pyridin-3-yl]carbonyl}glycine]
≤ 0.01 | CCc1ccc(Cn2c3c(c(O)c(C(=O)NCC(=O)O)c2=O)CSC3)cc1 [Example 17, N-{[1-(4-ethylbenzyl)-4-hydroxy-2-oxo-1,2,5,7-tetrahydrothieno[3,4-b]pyridin-3-yl]carbonyl}glycine]
≤ 0.01 | CSc1ccccc1-c1cnc(Cn2c3c(c(O)c(C(=O)NCC(=O)O)c2=O)CSC3)cn1 [Example 55, N-{[4-hydroxy-1-({5-[2-(methylthio)phenyl]pyrazin-2-yl}methyl)-2-oxo-1,2,5,7-tetrahydrothieno[3,4-b]pyridin-3-yl]carbonyl}glycine]
≤ 0.01 | CC(C)c1ccc(Cn2c3c(c(O)c(C(=O)NCC(=O)O)c2=O)CS(=O)(=O)C3)cc1 [Example 61, N-{[4-hydroxy-1-(4-isopropylbenzyl)-6,6-dioxido-2-oxo-1,2,5,7-tetrahydrothieno[3,4-b]pyridin-3-yl]carbonyl}glycine]
0.01 to 0.1 | O=C(O)CNC(=O)c1c(O)c2c(n(Cc3cc(F)cc(C(F)(F)F)c3)c1=O)CSC2 [Example 13, N-({l-[3-fluoro-5-(trifluoromethyl)benzyl]-4-hydroxy-2-oxo-1,2,5,7-tetrahydrothieno[3,4-b]pyridin-3-yl]carbonyl)glycine]
≤ 0.01 | O=C(O)CNC(=O)c1c(O)c2c(n(Cc3cnc(-c4ccccc4C(F)(F)F)cn3)c1=O)CSC2 [Example 57, N-{[4-hydroxy-2-oxo-1-({5-[2-(trifluoromethyl)phenyl]pyrazin-2-yl}methyl)-1,2,5,7-tetrahydrothieno[3,4-b]pyridin-3-yl]carbonyl}glycine]
≤ 0.01 | O=C(O)CNC(=O)c1c(O)c2c(n(Cc3cnc(-c4ccccc4Cl)cn3)c1=O)CSC2 [Example 53, N-[(1-{[-5-(2-chlorophenyl)pyrazin-2-yl]methyl}-4-hydroxy-2-oxo-1,2,5,7-tetrahydrothieno[3,4-b]pyridin-3-yl)carbonyl]glycine]
≤ 0.01 | O=C(O)CNC(=O)c1c(O)c2c(n(Cc3noc(-c4ccccc4)n3)c1=O)CSC2 [Example 10, N-({4-hydroxy-2-oxo-1-[(5-phenyl-1,2,4-oxadiazol-3-yl)methyl]-1,2,5,7-tetrahydrothieno[3,4-b]pyridin-3-yl]carbonyl)glycine]
≤ 0.01 | O=C(O)CNC(=O)c1c(O)c2c(n(Cc3cnn(-c4ccccc4)c3)c1=O)CSC2 [Example 24, N-({4-hydroxy-2-oxo-1-[(1-phenyl-1H-pyrazol-4-yl)methyl]-1,2,5,7-tetrahydrothieno[3,4-b]pyridin-3-yl}carbonyl)glycine]
≤ 0.01 | O=C(O)CNC(=O)c1c(O)c2c(n(Cc3nc(-c4ccccc4)cs3)c1=O)CSC2 [Example 7, N-({4-hydroxy-2-oxo-1-[(4-phenyl-1,3-thiazol-2-yl)methyl]-1,2,5,7-tetrahydrothieno[3,4-b]pyridin-3-yl}carbonyl)glycine]
≤ 0.01 | O=C(O)CNC(=O)c1c(O)c2c(n(Cc3ccc(-c4cccs4)cc3)c1=O)CSC2 [Example 35, N-({4-hydroxy-2-oxo-1-[4-(2-thienyl)benzyl]-1,2,5,7-tetrahydrothieno[3,4-b]pyridin-3-yl}carbonyl)glycine]
≤ 0.01 | O=C(O)CNC(=O)c1c(O)c2c(n(Cc3ccc(-c4ccccc4)cc3)c1=O)CS(=O)(=O)C2 [Example 64, N-{[1-(biphenyl-4-ylmethyl)-4-hydroxy-6,6-dioxido-2-oxo-1,2,5,7-tetrahydrothieno[3,4-b]pyridin-3-yl]carbonyl}glycine]
≤ 0.01 | CS(=O)(=O)c1ccc(Cn2c3c(c(O)c(C(=O)NCC(=O)O)c2=O)CSC3)cc1 [Example 6, N-({4-hydroxy-1-[4-(methylsulfonyl)benzyl]-2-oxo-1,2,5,7-tetrahydrothieno[3,4-d]pyridin-3-yl]carbonyl)glycine]
≤ 0.01 | O=C(O)CNC(=O)c1c(O)c2c(n(Cc3ccc(Br)cc3)c1=O)CSC2 [Example 2]
≤ 0.01 | O=C(O)CNC(=O)c1c(O)c2c(n(Cc3ccc(-c4ccc(OC(F)(F)F)cc4)cc3)c1=O)CSC2 [Example 36, N-[(4-hydroxy-2-oxo-1-{[4′-(trifluoromethoxy)biphenyl-4-yl]methyl}-1,2,5,7-tetrahydrothieno[3,4-b]pyridin-3-yl)carbonyl]glycine]
≤ 0.01 | O=C(O)CNC(=O)c1c(O)c2c(n(Cc3nc4ccccc4s3)c1=O)CSC2 [Example 11, N-{[1-(1,3-benzothiazol-2-ylmethyl)-4-hydroxy-2-oxo-1,2,5,7-tetrahydrothieno[3,4-b]pyridin-3-yl]carbonyl]glycine]
≤ 0.01 | CCc1ccccc1-c1ccc(Cn2c3c(c(O)c(C(=O)NCC(=O)O)c2=O)CSC3)cn1 [Example 50, N-[(l-{[6-(2-ethylphenyl)pyridinium-3-yl]methyl}-4-hydroxy-2-oxo-1,2,5,7-tetrahydrothieno[3,4-b]pyridin-3-yl)carbonyl]glycine trifluoroacetate]
≤ 0.01 | Cc1ccccc1-c1cnc(Cn2c3c(c(O)c(C(=O)NCC(=O)O)c2=O)CSC3)cn1 [Example 54, N-[(4-hydroxy-1-{[5-(2-methylphenyl)pyrazin-2-yl]methyl}-2-oxo-1,2,5,7-tetrahydrothieno[3,4-b]pyridin-3-yl)carbonyl]glycine]
≤ 0.01 | O=C(O)CNC(=O)c1c(O)c2c(n(Cc3ccc(Cl)cc3)c1=O)CSC2 [Example 16, N-{[1-(4-chlorobenzyl)-4-hydroxy-2-oxo-1,2,5,7-tetrahydrothieno[3,4-b]pyridin-3-yl]carbonyl}glycine]
≤ 0.01 | CCOc1ccc(-c2ccc(Cn3c4c(c(O)c(C(=O)NCC(=O)O)c3=O)CSC4)cc2)cc1 [Example 34, N-({1-[(4′-ethoxybiphenyl-4-yl)methyl]-4-hydroxy-2-oxo-1,2,5,7-tetrahydrothieno[3,4-b]pyridin-3-yl}carbonyl)glycine]
≤ 0.01 | O=C(O)CNC(=O)c1c(O)c2c(n(Cc3ccc(C(F)(F)F)nc3)c1=O)CSC2 [Example 5, N-[(4-hydroxy-2-oxo-1-{[6-(trifluoromethyl)pyridin-3-yl]methyl]-1,2,5,7-tetrahydrothieno[3,4-b]pyridin-3-yl)carbonyl]glycine]
